The source made the active and inactive calls. No cut-off for these calls is given here.
Key:
[1] = tested on: Rattus norvegicus; assay: Narcotic analgesic activity in fed Sprague-Dawley rat at 120 mg/kg, sc measured at 30 mins by D'Amour-Smith tail-flick test; format: functional; conditions: route subcutaneous
[2] = tested on: Mus musculus; assay: Analgesic activity in sc dosed Swiss-Webster mouse assessed as reduction of acetylcholine-induced writhing; format: functional; conditions: Mus musculus, Swiss-Webster, sc; read-out: ED50
[3] = tested on: Rattus norvegicus; assay: Toxicity in Sprague-Dawley rat assessed as tremor at 30 mg/kg, sc; format: organism-based; parameters: dose 30 mg/kg, route subcutaneous; conditions: in vivo
[4] = tested on: Rattus norvegicus; assay: Toxicity in Sprague-Dawley rat assessed as convulsion at 120 mg/kg, sc; format: organism-based; parameters: dose 120 mg/kg, route subcutaneous; conditions: in vivo
[5] = tested on: Rattus norvegicus; assay: Narcotic antagonist activity in fed Sprague-Dawley rat assessed as decrease in phenazocine-induced analgesic activity at 80 mg/kg, sc; format: functional
[6] = tested on: Rattus norvegicus; assay: Narcotic antagonist activity in fed Sprague-Dawley rat assessed as decrease in phenazocine-induced analgesic activity at 1 mg/kg, sc; format: functional, organism-based; parameters: dose 1 mg/kg
[7] = tested on: Rattus norvegicus; assay: Hypoglycemic activity in Sprague-Dawley rat assessed as reduction of blood glucose level at 87 mg/kg, po by glucagon-impaired glucose disposal test relative to control; format: functional; parameters: scale not given: the % may be the effect or the level left
[8] = tested on: Rattus norvegicus; assay: Hypoglycemic activity in Sprague-Dawley rat assessed as reduction of blood glucose level at 64 mg/kg, po by glucagon-impaired glucose disposal test relative to control; format: functional; parameters: scale not given: the % may be the effect or the level left
[9] = tested on: Rattus norvegicus; assay: Narcotic analgesic activity in fed Sprague-Dawley rat at 60 mg/kg, sc measured at 30 mins by D'Amour-Smith tail-flick test; format: functional; conditions: route subcutaneous
[10] = tested on: Rattus norvegicus; assay: Toxicity in Sprague-Dawley rat assessed as hyperactivity at 2.5 mg/kg, sc; format: organism-based; parameters: dose 2.5 mg/kg, route subcutaneous; conditions: in vivo
[11] = tested on: Rattus norvegicus; assay: Toxicity in Sprague-Dawley rat assessed as tremor at 60 mg/kg, sc; format: organism-based; parameters: dose 60 mg/kg, route subcutaneous; conditions: in vivo
[12] = tested on: Rattus norvegicus; assay: Toxicity in Sprague-Dawley rat assessed as convulsion at 60 mg/kg, sc; format: organism-based; parameters: dose 60 mg/kg, route subcutaneous; conditions: in vivo
[13] = tested on: Rattus norvegicus; assay: Narcotic antagonist activity in sc dosed fed Sprague-Dawley rat assessed as concentration required to decrease phenazocine-induced analgesic activity by 50%; format: functional
[14] = tested on: Rattus norvegicus; assay: Hypoglycemic activity in Sprague-Dawley rat assessed as reduction of blood glucose level at 100 mg/kg, po by glucagon-impaired glucose disposal test relative to control; format: functional; parameters: scale not given: the % may be the effect or the level left
[15] = tested on: Rattus norvegicus; assay: Narcotic analgesic activity in fasted Sprague-Dawley rat at 240 mg/kg, po measured at 15 mins by D'Amour-Smith tail-flick test relative to control; format: functional
[16] = tested on: Mus musculus; assay: Analgesic activity in po dosed Swiss-Webster mouse assessed as reduction of acetylcholine-induced writhing; format: functional
[17] = Drug metabolism in glucose loaded Sprague-Dawley rat urine assessed as formation of (7)- (exo,exo)-methyl 2-(thiophen-2-yl)-8-azabicyclo[3.2.1]octane-3-carboxylate hydrochloride at 20 mg, po administered 3 to 6 hrs measured for 24 hrs by TLC/mass spectrographic analysis; format: ADME, organism-based; conditions: in vivo
[18] = tested on: Rattus norvegicus; assay: Analgesic activity in po dosed rat assessed as reduction of intraarterial bradykinin-induced pain response; format: functional
[19] = tested on: Rattus norvegicus; assay: Toxicity in Sprague-Dawley rat at 240 mg/kg, po; format: organism-based; parameters: dose 240 mg/kg, route oral; conditions: in vivo
[20] = tested on: Rattus norvegicus; assay: Hypoglycemic activity in Sprague-Dawley rat assessed as reduction of blood glucose level at 100 mg/kg, po by glucagon-impaired glucose disposal test in presence of opioid antagonist nalorphine; format: functional, organism-based; parameters: dose 100 mg/kg
[21] = tested on: Rattus norvegicus; assay: Narcotic analgesic activity in fasted Sprague-Dawley rat at 240 mg/kg, po measured within 15 mins in presence of (exo,endo)-methyl 8-methyl-2-phenyl-8-azabicyclo[3.2.1]octane-3-carboxylate; format: functional, organism-based; parameters: dose 240 mg/kg
[22] = tested on: Rattus norvegicus; assay: Hypoglycemic activity in Sprague-Dawley rat assessed as reduction of blood glucose level at 100 mg/kg, po by glucagon-impaired glucose disposal test in presence of (exo,endo)-methyl 8-methyl-2-phenyl-8-azabicyclo[3.2.1]octane-3-carboxylate; format: functional, organism-based; parameters: dose 100 mg/kg
[23] = tested on: Rattus norvegicus; assay: Hypoglycemic activity in Sprague-Dawley rat assessed as reduction of blood glucose level at 100 mg/kg, po by glucagon-impaired glucose disposal test in presence of microsomal enzyme inhibitor SKF 525-A; format: functional, organism-based; parameters: dose 100 mg/kg
[24] = tested on: Rattus norvegicus; assay: Hypoglycemic activity in glucose/glycogen loaded Sprague-Dawley rat assessed as reduction of blood glucose level at 100 mg/kg, po measured at 0.5 hrs relative to control; format: functional; parameters: scale not given: the % may be the effect or the level left
[25] = tested on: Rattus norvegicus; assay: Hypoglycemic activity in glucose/glycogen loaded Sprague-Dawley rat assessed as reduction of blood glucose level at 100 mg/kg, po measured at 1 hr relative to control; format: functional; parameters: scale not given: the % may be the effect or the level left
[26] = tested on: Rattus norvegicus; assay: Hypoglycemic activity in glucose/glycogen loaded Sprague-Dawley rat assessed as reduction of blood glucose level at 100 mg/kg, po measured at 1.5 hrs relative to control; format: functional; parameters: scale not given: the % may be the effect or the level left
[27] = tested on: Rattus norvegicus; assay: Hypoglycemic activity in glucose/glycogen loaded Sprague-Dawley rat assessed as reduction of glucose level per 100 mL of blood at 100 mg/kg, po measured at 2 hrs (reference value: 110 +/- 10 mg/100 mL); format: functional
[28] = tested on: Rattus norvegicus; assay: Hypoglycemic activity in glucose loaded Sprague-Dawley rat assessed as reduction of blood glucose level at 100 mg/kg, po measured at 0.5 hrs relative to control; format: functional; parameters: scale not given: the % may be the effect or the level left
[29] = tested on: Rattus norvegicus; assay: Hypoglycemic activity in glucose loaded Sprague-Dawley rat assessed as reduction of blood glucose level at 100 mg/kg, po measured at 1 hr relative to control; format: functional; parameters: scale not given: the % may be the effect or the level left
[30] = tested on: Rattus norvegicus; assay: Hypoglycemic activity in glucose loaded Sprague-Dawley rat assessed as reduction of blood glucose level at 100 mg/kg, po measured at 1.5 hrs relative to control; format: functional; parameters: scale not given: the % may be the effect or the level left
[31] = tested on: Rattus norvegicus; assay: Hypoglycemic activity in glucose loaded Sprague-Dawley rat assessed as reduction of glucose level per 100 mL of blood at 100 mg/kg, po measured at 2 hrs (reference value: 104 +/- 4 mg/100 mL); format: functional
[32] = tested on: Rattus norvegicus; assay: Hypoglycemic activity in fasted Sprague-Dawley rat assessed as reduction of blood glucose level at 100 mg/kg, po measured at 0.5 hrs relative to control; format: functional; parameters: scale not given: the % may be the effect or the level left
[33] = tested on: Rattus norvegicus; assay: Hypoglycemic activity in fasted Sprague-Dawley rat assessed as reduction of blood glucose level at 100 mg/kg, po measured at 1 hr relative to control; format: functional; parameters: scale not given: the % may be the effect or the level left
[34] = tested on: Rattus norvegicus; assay: Hypoglycemic activity in fasted Sprague-Dawley rat assessed as reduction of blood glucose level at 100 mg/kg, po measured at 1.5 hrs relative to control; format: functional; parameters: scale not given: the % may be the effect or the level left
[35] = tested on: Rattus norvegicus; assay: Hypoglycemic activity in fasted Sprague-Dawley rat assessed as reduction of blood glucose level at 100 mg/kg, po measured at 2 hrs relative to control; format: functional; parameters: scale not given: the % may be the effect or the level left
[36] = tested on: Rattus norvegicus; assay: Hypoglycemic activity in Sprague-Dawley rat assessed as reduction of blood glucose level at 9 mg/kg, po measured within 15 mins by glucagon-impaired glucose disposal test relative to control; format: functional; parameters: scale not given: the % may be the effect or the level left
[37] = tested on: Rattus norvegicus; assay: Narcotic analgesic activity in fasted Sprague-Dawley rat at 35 mg/kg, po measured at 15 mins by D'Amour-Smith tail-flick test relative to control; format: functional
[38] = tested on: Rattus norvegicus; assay: Narcotic analgesic activity in fasted Sprague-Dawley rat at 35 mg/kg, po measured at 30 mins by D'Amour-Smith tail-flick test relative to control; format: functional
[39] = tested on: Rattus norvegicus; assay: Narcotic analgesic activity in fasted Sprague-Dawley rat at 35 mg/kg, po measured at 60 mins by D'Amour-Smith tail-flick test relative to control; format: functional
[40] = tested on: Rattus norvegicus; assay: Toxicity in Sprague-Dawley rat assessed as convulsion at 35 mg/kg, po; format: organism-based; parameters: dose 35 mg/kg, route oral; conditions: in vivo
[41] = tested on: Mus musculus; assay: Toxicity in Swiss-Webster mouse assessed as mortality at 75 mg/kg, sc; format: organism-based; parameters: dose 75 mg/kg, route subcutaneous; conditions: in vivo
[42] = tested on: Rattus norvegicus; assay: Hypoglycemic activity in Sprague-Dawley rat assessed as reduction of blood glucose level at 9 mg/kg, po by glucagon-impaired glucose disposal test in presence of microsomal enzyme inhibitor SKF 525-A; format: functional, organism-based; parameters: dose 9 mg/kg
[43] = tested on: Rattus norvegicus; assay: Hypoglycemic activity in Sprague-Dawley rat assessed as reduction of blood glucose level at 9 mg/kg, po measured < 90 mins by glucagon-impaired glucose disposal test; format: functional, organism-based; parameters: dose 9 mg/kg

Compound: CC(=O)[C@H]1C[C@H]2CC[C@H]([C@H]1c1ccccc1)N2C.Cl
- Activity [1]: <20%
- ED50 [2]: 7 mg/kg
- Activity [3]: Toxic
- Activity [4]: Toxic
- Activity [5]: Active
- Activity [6]: Active
- Activity [7]: 32%

Compound: COC(=O)[C@H]1C[C@H]2CC[C@H]([C@H]1c1ccccc1)N2CC1CC1.Cc1ccc(S(=O)(=O)O)cc1
- Activity [8]: 20%
- Activity [9]: <20%
- ED50 [2]: 16 mg/kg
- Activity [10]: Toxic
- Activity [11]: Toxic
- Activity [12]: Toxic
- Activity [13]: 4.7 mg/kg

Compound: CCCCCN1[C@@H]2CC[C@@H]1[C@@H](c1cccs1)[C@@H](C(=O)OC)C2.CS(=O)(=O)O
- Activity [14]: 60%
- Activity [15]: 71%
- ED50 [16]: 57 mg/kg
- Drug metabolism [17]: metabolite_detected
- ED50 [18]: 17 mg/kg
- Activity [19]: Non-toxic
- Activity [20]: Active
- Activity [21]: inactive
- Activity [22]: Active
- Activity [23]: inactive
- Activity [24]: 60%
- Activity [25]: 60%
- Activity [26]: 52%
- Activity [27]: 77 mg/kg
- Activity [28]: 67%
- Activity [29]: 61%
- Activity [30]: 33%
- Activity [31]: 76 mg/kg
- Activity [32]: 42%
- Activity [33]: 41%
- Activity [34]: 39%
- Activity [35]: 33%

Compound: COC(=O)[C@H]1C[C@H]2CC[C@@H]3[C@H]1c1sccc1CN23.Cl
- Activity [36]: 43%
- Activity [37]: 74%
- Activity [38]: 14%
- Activity [39]: 12%
- ED50 [2]: 1.5 mg/kg
- Activity [40]: Toxic
- Activity [41]: Toxic
- Activity [42]: Active
- Activity [43]: inactive

— ChEMBL document CHEMBL3272053, “(exo, exo)-2-Aryltropane-3-carboxylic esters, hypoglycemic agents with accompanying analgesic activity” (J Med Chem, 1978)
